“Also recorded” adds a separate entry of the source.
Columns and labels:
male ICR mice [1] = test: Mouse radiant heat tail flick assay after acute ICV administration; type: in vivo; conditions: for Ligand ED50 pmol (95% C.L.), antinociceptive potency / ED50 nmol (95% C.L.), antinociceptive potency: mouse tail flick, acute ICV administration; for Ligand ED50 pmol (95% C.L.), antinociceptive potency: mu control ligands; for ED50 nmol (95% C.L.), antinociceptive potency: conjugates and coadministration
Protocol: Acute drug administration. Drugs were dissolved in sterile saline (0.9% NaCl). Animals were anesthetized with halothane and drugs were administered with a Hamilton syringe mated to a shortened (3 mm) 27-g needle in a volume of 4 μl by ICV injection into the lateral cerebral ventricle (Haley et al., 1957). The injection site was 1.6 mm lateral and 0.6 mm caudal to bregma.
Antinociceptive testing. […] Mice were tested once before injection (control time).

male ICR mice [2] = test: Physical dependence: naloxone-precipitated withdrawal jumping after chronic ICV infusion; type: in vivo, mouse; conditions: for physical dependence on chronic ICV administration: 3-day ICV infusion, naloxone-precipitated jumping; for # of Jumps (SEM), naloxone-precipitated withdrawal: average jumps in 10 minutes after naloxone 1 mg/kg sc, after 3-day ICV infusion
Protocol: (§1) Chronic administration To investigate tolerance and dependence associated with these conjugates, chronic ICV administration studies were performed. The compound of interest was administered ICV via a cannula using an osmotic minipump for 3 days, as previously described (Gomori et al., 2003; Mashiko et al., 2003). Withdrawal was measured by administering naloxone (1 mg/kg; subcutaneous (sc)) and counting the naloxone-precipitated jumps for 10 minutes. Tolerance was determined by administering challenge doses of the compound after chronic infusion for 3 days, and determining the chronic ED50 value at that time.
(§2) Chronic ICV infusion. Osmotic minipumps (model 1003D, Alzet, Durect Corporation, Cupertino, Calif.) were filled with saline or the drug to be tested. The dose of each drug was twelve times its ED50 (nmol)/hour. The minipumps were connected by a 1.6-1.8 cm length of PE-60 tubing to a 3-mm long cannula (osmotic pump connector cannula, Plastics One, Roanoke, Va.) and primed in sterile saline at 37° C. overnight.
(§3) The next day, mice were anesthetized with Avertin (2,2,2-tribromoethanol (370 mg/kg, IP)/tert amyl alcohol (0.16 mg/kg, IP)) before surgery. The scalp was shaved and an incision was made along the midline of the scalp. Hemostats were used to make a pocket under the skin between the shoulder blades. The skull was scraped clean of periosteum so that the cannula pedestal would properly adhere to the skull. A micro drill (Fine Science Tools Inc., Foster City, Calif.) was used to drill a hole approximately 1.6 mm lateral and 0.6 mm caudal to bregma. The minipump was placed between the shoulder blades, the cannula was inserted in the drilled hole into the lateral ventricle, and the cannula pedestal was affixed to the skull with cyanoacrylate glue. The animals were allowed to recover on a heating pad (Fine Science Tools, Foster City, Calif.) and were returned to their cages in the animal facility for three days.
Testing for dependence and tolerance. The development of physical dependence was assessed by quantifying withdrawal jumping observed during precipitated withdrawal (Way et al., 1969) on the fourth day after surgery. Mice were injected with naloxone (1 mg/kg, sc) and placed into Plexiglas cylinders for 10 minutes. During those 10 minutes, vertical jumps were counted as withdrawal signs.

male ICR mice [3] = test: Tolerance: tail flick ED50 after 3-day chronic ICV infusion (osmotic minipump); type: in vivo, mouse; conditions: for tolerance on chronic ICV administration: 3-day ICV infusion; for Chronic ED50 nmol (95% C.L.): compound chronically administered ICV for 3 days, then challenge doses; for Saline ED50 nmol (95% C.L.): saline chronically administered ICV for 3 days, then challenge doses of compound; for fold increase in ED50 value after chronic ICV infusion: three-day ICV infusion
Protocol: as §1, §2, §3
To test the degree of tolerance developed, the osmotic minipump was removed and the mice were returned to their cages for four hours. The mice were then injected with the test drug into the contralateral lateral cerebral ventricle and antinociception was measured with the tail flick test as described above.

male ICR mice [4] = test: Mouse tail flick assay after IV administration; conditions: tail flick, IV
Protocol: Antinociceptive testing. Antinociception was evaluated by the radiant heat tail flick assay (D'Amour et al., 1941). Briefly, a beam of light was focused on the mouse tail and the time until the tail flicked was measured. Each animal served as its own control and was used only once. Mice were tested once before injection (control time). After injection, the mice were tested at the time of peak drug response (drug time), as determined by pilot time course studies. The light intensity was adjusted so that control times were between 1.5 and 2.5 s. A 10 second cutoff drug time was set to minimize the risk of tissue damage. Percent maximum possible effect (% MPE) was calculated as follows (Dewey et al., 1970): […]
Graded dose response curves of at least 4 doses with at least 8 mice per dose were generated from the % MPE data.
Methods Drugs were administered IV via the tail vein in a volume of 100 μl to male ICR mice. Fifteen minutes later, antinociception was measured by the tail flick assay and charcoal meal (300 μl, oral) was administered by gavage. Thirty minutes after the charcoal meal., the mice were sacrificed by halothane overdose and the distance the charcoal traveled relative to the entire length of the GI tract was compared to the distance traveled in control animals injected with saline. The conjugates tested (MDAN-16, MDAN-19, MDAN-20, and MDAN-21) had linker lengths of 19, 23, 24, and 25 Å.

Row | SMILES | Ligand ED50 pmol (95% C.L.), antinociceptive potency (male ICR mice [1]) [pmol] | # of Jumps (SEM), naloxone-precipitated withdrawal (male ICR mice [2]) | Chronic ED50 nmol (95% C.L.) (male ICR mice [3]) | Saline ED50 nmol (95% C.L.) (male ICR mice [3]) | fold increase in ED50 value after chronic ICV infusion (male ICR mice [3]) [fold] | ED50 nmol (95% C.L.), antinociceptive potency (male ICR mice [1]) | also measured
1 | CNC(=O)COCC(=O)NCCCCCCNC(=O)COCC(=O)N[C@H]1CC[C@@]2(O)[C@H]3Cc4ccc(O)c5c4[C@@]2(CCN3C)[C@H]1O5 [Compound 13, (5α,6α)-6-{2-[(6-{2-[(Methylaminocarbonyl)-methoxy]-acetylamino}-hexylaminocarbonyl)-methoxy]-acetylamino}-4,5-epoxy-3,14-dihydroxy-17-methylmorphinan, reference compound] | 37.25 | – | – | – | – | – | –
2 | CNC(=O)COCC(=O)NCCCCCCCNC(=O)COCC(=O)NC1CCC2(O)C3Cc4ccc(O)c5c4C2(CCN3C)C1O5 (stereo not drawn) [Compound 14, reference compound] | 43.56 | – | – | – | – | – | –
3 | CN1CCC23c4c5ccc(O)c4OC2C(NC(=O)COCC(=O)NCCCCNC(=O)COCC(=O)Nc2cccc4c6c([nH]c24)C2Oc4c(O)ccc7c4C24CCN(CC2CC2)C(C7)C4(O)C6)CCC3(O)C1C5 (stereo not drawn) [Compound 5] | – | 8.9 (3.0) | 4.75 (3.50-6.00) nmol | 1.29 (0.97-1.61) nmol | 3.7 | 0.95 (0.68-1.23) nmol | physical dependence on chronic ICV administration (male ICR mice [2]; listed as MDAN-18): without producing dependence; also recorded: without physical dependence; # of Jumps (SEM), naloxone-precipitated withdrawal (male ICR mice [2]; listed as MDAN-18): 8.9; tolerance on chronic ICV administration (male ICR mice [3]; listed as MDAN-18): produced tolerance; also recorded: tolerance without physical dependence developed
4 | CN1CCC23c4c5ccc(O)c4OC2C(NC(=O)COCC(=O)NCCCCCCNC(=O)COCC(=O)Nc2cccc4c6c([nH]c24)C2Oc4c(O)ccc7c4C24CCN(CC2CC2)C(C7)C4(O)C6)CCC3(O)C1C5 (stereo not drawn) [Compound 7, 7′-{2-[(6-{2-[({(5α,6α)-4,5-Epoxy-3,14-dihydroxy-17-methylmorphin-6-yl}-aminocarbonyl)-methoxy]-acetylamino}-hexylaminocarbonyl)-methoxy]-acetylamino}-naltrindole] | – | 0.4 (0.4) | 0.17 (0.13-0.21) nmol | 0.17 (0.15-0.20) nmol | – | 0.17 (0.15-0.19) nmol | physical dependence on chronic ICV administration (male ICR mice [2]; listed as MDAN-20): no tolerance or dependence was observed; also recorded: produced no tolerance or physical dependence; tolerance on chronic ICV administration (male ICR mice [3]; listed as MDAN-20): no tolerance or dependence was observed; also recorded: produced no tolerance or physical dependence
5 | CNC(=O)COCC(=O)NCCCNC(=O)COCC(=O)NC1CCC2(O)C3Cc4ccc(O)c5c4C2(CCN3C)C1O5 (stereo not drawn) [Compound 10, reference compound] | 39.69 | – | – | – | – | – | –
6 | CNC(=O)COCC(=O)NCCCCCNC(=O)COCC(=O)NC1CCC2(O)C3Cc4ccc(O)c5c4C2(CCN3C)C1O5 (stereo not drawn) [Compound 12, reference compound] | 39.45 | 83 (13) | 0.22 (0.19-0.26) nmol | 0.04 (0.03-0.05) nmol | 5.5 | – | ED50 IV (nmol) (male ICR mice [4]): 1.61 (1.29-1.92) nmol; physical dependence on chronic ICV administration (male ICR mice [2]): produced both antinociceptive tolerance and physical dependence; # of Jumps (SEM), naloxone-precipitated withdrawal (male ICR mice [2]; listed as MA-19): 83; tolerance on chronic ICV administration (male ICR mice [3]): produced both antinociceptive tolerance and physical dependence; ED50 ICV (nmol) (male ICR mice [1]; tail flick, ICV, Table 2): 0.04 (0.03-0.05) nmol
7 | CNC(=O)COCC(=O)NCCNC(=O)COCC(=O)NC1CCC2(O)C3Cc4ccc(O)c5c4C2(CCN3C)C1O5 (stereo not drawn) [Compound 9, reference compound] | 39.39 | – | – | – | – | – | –
8 | CN1CCC23c4c5ccc(O)c4OC2C(NC(=O)COCC(=O)NCCCNC(=O)COCC(=O)Nc2cccc4c6c([nH]c24)C2Oc4c(O)ccc7c4C24CCN(CC2CC2)C(C7)C4(O)C6)CCC3(O)C1C5 (stereo not drawn) [Compound 4] | – | 0.9 (0.7) | 5.61 (4.39-6.83) nmol | 1.54 (0.89-2.20) nmol | 3.6 | 1.49 (1.04-1.95) nmol | physical dependence on chronic ICV administration (male ICR mice [2]; listed as MDAN-17): without producing dependence; also recorded: without physical dependence; # of Jumps (SEM), naloxone-precipitated withdrawal (male ICR mice [2]; listed as MDAN-17): 0.94; tolerance on chronic ICV administration (male ICR mice [3]; listed as MDAN-17): produced tolerance; also recorded: tolerance without physical dependence developed
